# Assay results as given in PubChem BioAssay AID1963959 (Molecular Pharmacology Branch, DTP, NCI, 2024).
# System: T-47D spheroids with HUVEC/MSC, viability
# Experiment: Anticancer human tumor T-47D cell line growth inhibition [PI3K];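 further: spheroids exposed to agents for seven days before reading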;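 on viability, T/C: percent of DMSO vehicle control luminescence so 100% = untreated growth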
# Settings: for IC50: curve of first compound; for viability, T/C: stronger effect = lower value
# Procedure, shortened: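 Tumor cells grown as multi-cell spheroids with HUVEC endothelial cells and MSC fibroblast-like stroma were treated with targeted agents combined with inavolisib, alpelisib, duvelisib or copanlisib. Doses fell in half-log steps from near clinical Cmax, else from 10 microM. Viability was measured.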
structure (smiles),measurement,setting,value
CCCS(=O)(=O)Nc1ccc(F)c(C(=O)c2c[nH]c3ncc(-c4ccc(Cl)cc4)cc23)c1F + COc1c(OCCCN2CCOCC2)ccc2c3n(c(=NC(=O)c4cnc(N)nc4)nc12)CCN3,IC50,second compound 0.00316 µM,> 10 µM
same,IC50,second compound 0.01 µM,> 10 µM
same,IC50,second compound 0.0316 µM,> 10 µM
same,IC50,second compound 0.1 µM,< 0.0316 µM
same,IC50,second compound 0.316 µM,< 0.0316 µM
same,IC50,second compound 1 µM,< 0.0316 µM
same,"viability, T/C","second compound 0.00316 µM, first compound 0.0316 µM",104%
same,"viability, T/C","second compound 0.00316 µM, first compound 0.1 µM",86.9%
same,"viability, T/C","second compound 0.00316 µM, first compound 0.316 µM",110%
same,"viability, T/C","second compound 0.00316 µM, first compound 1 µM",94.1%
same,"viability, T/C","second compound 0.00316 µM, first compound 3.16 µM",69.5%
same,"viability, T/C","second compound 0.00316 µM, first compound 10 µM",56.8%
same,"viability, T/C","second compound 0.01 µM, first compound 0.0316 µM",98.3%
same,"viability, T/C","second compound 0.01 µM, first compound 0.1 µM",86.2%
same,"viability, T/C","second compound 0.01 µM, first compound 0.316 µM",83.4%
same,"viability, T/C","second compound 0.01 µM, first compound 1 µM",92.4%
same,"viability, T/C","second compound 0.01 µM, first compound 3.16 µM",87.4%
same,"viability, T/C","second compound 0.01 µM, first compound 10 µM",51.3%
same,"viability, T/C","second compound 0.0316 µM, first compound 0.0316 µM",66.8%
same,"viability, T/C","second compound 0.0316 µM, first compound 0.1 µM",77%
same,"viability, T/C","second compound 0.0316 µM, first compound 0.316 µM",73.9%
same,"viability, T/C","second compound 0.0316 µM, first compound 1 µM",62.5%
same,"viability, T/C","second compound 0.0316 µM, first compound 3.16 µM",57.5%
same,"viability, T/C","second compound 0.0316 µM, first compound 10 µM",52.2%
same,"viability, T/C","second compound 0.1 µM, first compound 0.0316 µM",38%
same,"viability, T/C","second compound 0.1 µM, first compound 0.1 µM",42.6%
same,"viability, T/C","second compound 0.1 µM, first compound 0.316 µM",36.4%
same,"viability, T/C","second compound 0.1 µM, first compound 1 µM",39.8%
same,"viability, T/C","second compound 0.1 µM, first compound 3.16 µM",31.6%
same,"viability, T/C","second compound 0.1 µM, first compound 10 µM",33.7%
same,"viability, T/C","second compound 0.316 µM, first compound 0.0316 µM",14.9%
same,"viability, T/C","second compound 0.316 µM, first compound 0.1 µM",22.1%
same,"viability, T/C","second compound 0.316 µM, first compound 0.316 µM",18.3%
same,"viability, T/C","second compound 0.316 µM, first compound 1 µM",16.1%
same,"viability, T/C","second compound 0.316 µM, first compound 3.16 µM",18.8%
same,"viability, T/C","second compound 0.316 µM, first compound 10 µM",20.5%
same,"viability, T/C","second compound 1 µM, first compound 0.0316 µM",5.53%
same,"viability, T/C","second compound 1 µM, first compound 0.1 µM",9.03%
same,"viability, T/C","second compound 1 µM, first compound 0.316 µM",6.15%
same,"viability, T/C","second compound 1 µM, first compound 1 µM",2.77%
same,"viability, T/C","second compound 1 µM, first compound 3.16 µM",4.64%
same,"viability, T/C","second compound 1 µM, first compound 10 µM",6.82%
